Assay results as given in patent US20110045101A1, “FUNGICIDAL SUBSTITUTED AZOLES” (E.I. Du Pont De Nemours and Company, priority 2009, published 2011).
Marks after values point to notes of the source that are not given here.

Experiments:
Format in all cases: in vivo
Conditions in all cases: 100 = 100% disease control
[1] = system: Botrytis cinerea; test: Test C: tomato Botrytis on tomato seedlings, sprayed the day before inoculation, visual disease rating
How it was run: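 Disease scored by eye on tomato seedlings inoculated with Botrytis cinerea a day after treatment. Treatment was a run-off spray at 200 ppm (equivalent to 500 g/ha), or 40 ppm where marked, in acetone/water carrying 250 ppm Trem 014.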

[2] = system: Alternaria solani; test: Test D: tomato early blight, sprayed the day before inoculation, visual disease rating
How it was run: (§1)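 Ratings reflect a 200 ppm spray (≈500 g/ha) unless marked as 40 ppm. Plants were sprayed to run-off. The spray suspension was acetone/purified water 50/50 containing 250 ppm Trem 014, after first dissolving compound in acetone at 3% of final volume.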

[3] = system: Septoria nodorum; test: Test F: wheat glume blotch on wheat seedlings, sprayed the day before inoculation, visual disease rating
How it was run: as §1

[4] = system: Septoria tritici; test: Test G: wheat leaf blotch on wheat seedlings, sprayed the day before inoculation, visual disease rating
How it was run: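 Wheat seedlings were sprayed to run-off with test suspension (acetone/water plus surfactant), generally 200 ppm (≈500 g/ha), or 40 ppm where marked. Septoria tritici spores were inoculated the next day; plants were held 48 h at 24°C in saturated atmosphere, then 19 days at 20°C before visual disease rating.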

[5] = system: Puccinia recondita f. sp. tritici; test: Test I: wheat leaf rust on wheat seedlings, sprayed the day before inoculation, visual disease rating
How it was run: as §1

[6] = system: Erysiphe graminis f. sp. tritici; test: Test J: wheat powdery mildew on wheat seedlings, sprayed the day before inoculation, visual disease rating
How it was run: as §1

[7] = 200 ppm, 0 = no control relative to controls
[8] = 40 ppm (marked *), 0 = no control

Row | Compound | Test C disease control rating ([1]; 200 ppm, 0 = no control) | Test D disease control rating ([2]; 200 ppm, 0 = no control) | Test F disease control rating ([3]; 200 ppm, 0 = no control) | Test G disease control rating ([4]; 200 ppm, 0 = no control) | Test I disease control rating ([5]; 200 ppm, 0 = no control) | Test J disease control rating ([6]; 200 ppm, 0 = no control) | Test C disease control rating [1, 7] | Test D disease control rating [2, 7] | Test F disease control rating [3, 7] | Test G disease control rating [4, 7] | Test I disease control rating [5, 7] | Test J disease control rating [6, 7] | also measured
1 | Cc1ccc(-n2c(Br)nc(Cl)c2-c2c(F)ccc(F)c2F)cc1C [compound 224] | 93% | 51% | 0% | 90% | 80% | 98% | – | – | – | – | – | – | –
2 | Cc1ccc(-n2cnc(Cl)c2-c2c(F)cccc2F)cc1F [compound 161] | 99% | 71% | 0% | 1% | 80% | 100% | – | – | – | – | – | – | –
3 | COc1cc(Cl)cc(F)c1-c1c(Cl)ncn1-c1ccc(Cl)cc1 [compound 133] | – | – | – | – | – | – | 0% | 0% | 0% | 0% | 0% | 0% | –
4 | Fc1cccc(F)c1-c1c(Cl)nc(Br)n1Cc1ccc(Cl)cc1 [compound 103] | – | – | – | – | – | – | 79% | 92% | 90% | 98% | 100% | 99% | –
5 | Fc1cccc(F)c1-c1c(Cl)nc(Br)n1-c1ccc(C(F)(F)F)cc1 [compound 84] | – | – | – | – | – | – | 0% | 99% | 0% | 88% | 91% | 99% | –
6 | COc1ccc(F)c(-c2c(Cl)nc(Cl)n2-c2cccc(F)c2)c1F [compound 279] | 100% | 100% | 100% | 93% | 100% | 100% | – | – | – | – | – | – | –
7 | Fc1ccc(-c2c(Cl)nc(Br)n2-c2ccc(Cl)c(F)c2)c(Cl)c1 [compound 202] | 91% | 61% | 98% | 97% | 98% | 100% | – | – | – | – | – | – | –
8 | COc1cc(F)c(-n2c(Cl)nc(Br)c2-c2ccc(Cl)cc2)c(F)c1 [compound 214] | – | – | – | – | – | – | – | – | – | – | – | – | Test C disease control rating [1, 8]: 100* %; Test D disease control rating [2, 8]: 99* %; Test F disease control rating [3, 8]: 97* %; Test G disease control rating [4, 8]: 94* %; Test I disease control rating [5, 8]: 97* %; Test J disease control rating [6, 8]: 98* %
9 | Cc1nc(Cl)c(-c2c(F)ccc(Br)c2F)n1-c1ccc(Cl)cc1 [compound 91] | – | – | – | – | – | – | 98% | 100% | 100% | 99% | 96% | 100% | –
10 | COc1cc(F)c(-c2c(Cl)nc(C)n2-c2ccc(F)cc2)c(F)c1 [compound 158] | 99% | 100% | 96% | 97% | 100% | 100% | – | – | – | – | – | – | –
11 | Cc1ccc(-n2c(C)nc(Cl)c2-c2ccc(F)cc2Cl)cc1 [compound 188] | 98% | 100% | 0% | 97% | 100% | 99% | – | – | – | – | – | – | –
